PubChem BioAssay (NCI)
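Test compounds were applied to cells in 96-well plates for 48 hours at 5 doses. TGI: total growth inhibition.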

Experiments:
Assay in all cases: NCI anticancer screen, dose series, 48 h
[1] = tested on: RXF 393 renal
[2] = tested on: RPMI-8226 leukemia
[3] = tested on: SF-268 CNS
[4] = tested on: A549 NSCLC
[5] = tested on: HOP-92 NSCLC
[6] = tested on: HT29 colon
[7] = tested on: K-562 leukemia
[8] = tested on: U251 CNS
[9] = tested on: SF-539 CNS
[10] = tested on: CAKI-1 renal

Row | Structure (SMILES) | TGI [1] | TGI [2] | TGI [3] | TGI [4] | TGI [5] | TGI [6] | TGI [7] | TGI [8] | TGI [9] | TGI [10]
1 | CCCCCCCCC[n+]1cccc(C2C(C(=O)OCC)=C(C)NC(C)=C2C(=O)OCC)c1 | 5.94 µM | 5.28 µM | 16.9 µM | 36.1 µM | 6.52 µM | 11.7 µM | 43.7 µM | 12.6 µM | 15.6 µM | 28.2 µM
2 | Cn1c(=O)c2[nH]c(CCC(=O)O)nc2n(C)c1=O | > 100 µM | > 100 µM | > 100 µM | > 100 µM | > 100 µM | > 100 µM | > 100 µM | > 100 µM | > 100 µM | > 100 µM
3 | c1ccc(-c2[nH]c(-c3ccccc3)c(-c3cnccn3)c2-c2cnccn2)cc1 | > 100 µM | > 100 µM | > 100 µM | > 100 µM | > 100 µM | > 100 µM | > 100 µM | > 100 µM | > 100 µM | > 100 µM
4 | COC(=O)C(C(=O)OC)C1CC(=O)c2c(Br)sc(Br)c21 (stereo not given) | 84.4 µM | 26.4 µM | 52.8 µM | 68.8 µM | 35 µM | 32.9 µM | 53.5 µM | 29.8 µM | 42.6 µM | 21.1 µM
5 | CC(=O)[C@H]1CCC2[C@@H]3CC=C4C(O)C(OS(=O)(=O)O)CC[C@]4(C)C3CC[C@@]21C (stereo not given in full) | > 100 µM | > 100 µM | > 100 µM | > 100 µM | > 100 µM | > 100 µM | > 100 µM | > 100 µM | > 100 µM | > 100 µM
6 | COC1=CC(=O)c2c(cc(COP(=O)(N(C)CCBr)N(C)CCBr)n2C)C1=O | 1.95 µM | 4.11 µM | > 38.2 µM | 7.18 µM | 7.54 µM | 1.42 µM | > 100 µM | 8.43 µM | 0.339 µM | 2.26 µM
7 | O=C(Nc1nc(C23CC4CC(CC(C4)C2)C3)cs1)c1cc2cc([N+](=O)[O-])ccc2oc1=O | 74.8 µM | > 100 µM | > 100 µM | > 100 µM | > 100 µM | > 100 µM | > 100 µM | > 100 µM | > 100 µM | > 100 µM
8 | O=C(NCc1ccccc1)c1c(O)c2ccccc2[nH]c1=O | > 100 µM | > 100 µM | > 100 µM | > 100 µM | > 100 µM | > 100 µM | > 100 µM | > 100 µM | > 100 µM | > 100 µM
9 | COC(=O)c1c(C#C[Si](C)(C)C)c(C#C[Si](C)(C)C)c(C#C[Si](C)(C)C)c(C#C[Si](C)(C)C)c1C(=O)OC | > 100 µM | > 100 µM | > 100 µM | > 100 µM | > 100 µM | > 100 µM | > 100 µM | > 100 µM | > 100 µM | > 100 µM
